Where two headings read alike, the source gives them in different places.
What was measured:
[1] = tested on: LnCAP cells; assay: LnCAP gene expression; format: cell-based; settings: Homo sapiens
[2] = tested on: orchidectomized rats; assay: Testosterone induced prostate / seminal vesicle growth in delayed ORX rat model; format: in vivo
Source text: Orchidectomized (ORX) and sham-operated Wistar male rats were used (orchidectomized at 8 weeks of age and allowed to waste for 4 weeks). […] Rats were randomized and placed into treatment groups (n=6) based on body weight. Route of administration for all groups except testosterone enanthate (TE was given sub-cutaneously) was oral. At the end of 2 weeks of daily rats were euthanized, weighed & tissue harvested. Levator ani, prostates, and seminal vesicles were collected from each animal. Results are plotted as means±SE.

[3] = ORX + TE, 1 mg/kg/d (control group itself)

SMILES	EC50 ([1]; read-out: LnCAP Gene Expression EC50 (nM) AR)	EC50 ([1]; read-out: LnCAP Gene Expression EC50 (nM) CLUSTERIN)	EC50 ([1]; read-out: LnCAP Gene Expression EC50 (nM) PSA)	prostate weights, Abs(Dif)-LSD vs ORX + TE control [2, 3]	seminal vesicle wet weights, Abs(Dif)-LSD vs ORX + TE control [2, 3]	prostate weight and seminal vesical weight ([2]; ORX rat, Testosterone 1 mg/k/d alone for 2 weeks)
C[C@]1(O)CC[C@H]2[C@@H]3CCC4=CC(=O)CCC4=C3C=C[C@@]21C [R1881]	0.035 nM	0.37 nM	0.034 nM	–	–	–
CCCCCCC(=O)O[C@H]1CC[C@H]2[C@@H]3CCC4=CC(=O)CC[C@]4(C)[C@H]3CC[C@]12C [TE, Testosterone Enanthate, reference compound]	–	–	–	−0.15	−0.52	increase in prostate weight and seminal vesical weight

Reference: patent US20180185347A1, “TETRAHYDROCYCLOPENTA[B]INDOLE COMPOUNDS AND PHOSPHODIESTERASE INHIBITORS FOR THE TREATMENT OF THE SIGNS AND SYMPTOMS OF BHP” (Transition Therapeutics (Ireland 2) Limited, priority 2016, published 2018)
